{"source": "patent US7314959B2", "about": "“Amino thiol compounds and compositions for use in conjunction with cancer therapy” (Wisconsin Alumni Research Foundation, priority 2003, dated 2008)", "key": {"[1]": {"tested_on": "Cytoxan-induced alopecia in rat pups", "assay": "Cytoxan-induced alopecia in rat pups", "type": "in vivo", "method": "Induction of alopecia by cytoxan (CTX). Lactating Sprague Dawley mother rats with rat pups were purchased from Harlan Sprague Dawley (Indianapolis, Ind.). The mother rats were given food and water ad libitum. The rats pups were tested in the model of chemotherapy-induced alopecia described by Hussein A. M. et al., Science: 249, 1564 (1990). Cytoxan (CTX), a chemotherapeutic widely used in the treatment of cancer, was used to induce alopecia in the rats. A common side effect of cytoxan treatment in patients is alopecia. Lyophilized vials of Cytoxan were obtained from Mead-Johnson. To produce CTX-induced alopecia, 11 day old rat pups, which are at the peak of coat growth, were injected i.p. with 30-35 μg of CTX/gm body weight. CTX was dissolved in water. By day 18 of life, the animals have shed virtually 100% of their coat leaving bare skin on their backs. Thus, topical application of protective drugs to the animal's back prior to the CTX insult provides a suitable test for prevention of chemotherapy-induced alopecia. A separate alopecia assay was also developed in which whole-body irradiation on day 11 of life was used as the insult. This assay is described in further detail in Example 12 which follows.\nIn the earliest studies with chemoprotective polyamines, the molecules were prepared in a topical delivery vehicle consisting of from 50-70% ethanol in water, depending on the solubility of the compound. The compounds in ethanol/water solution from 50-150 µl in volume were topically administered to the backs of the pups once per day before and after CTX challenge. Using a micropipette, the formulation was applied to an approximately 2 cm2 section of skin on the backs of the rat pups. Specifically, the pups were treated once daily for the 4-5 days before CTX challenge, once on the day of CTX challenge and once daily for 5 days afterwards. Control groups consisted of pups receiving only delivery vehicle. […]\nIn the earliest studies with chemoprotective polyamines, hair loss was evaluated using a modified alopecia-scoring index described by Chen G. et al., Int. […] In the later studies with aminothiols a simpler scoring scale was adopted in which coat density was scored on a 0-100 scale as “% of normal coat density.”\nMethod: To assess the ability of topical treatments to prevent Cytoxan-induced alopecia we used a published protocol (Hussein et al., Science. 249(4976):1564-6, 1990) in which 11 day old neonate rat pups (Sprague-Dawley) receive a total of 6 topical skin treatments of active agent(s) during the 5 hr before and 2 hr after a single ip dose of Cytoxan (32 ug/gm b.w.). […] The density of the rat coats in the topical treatment area was scored on day 18 of life for animals injected with Cytoxan."}, "[2]": {"tested_on": "primary, diploid fibroblasts isolated from human skin", "assay": "Growth inhibition of primary diploid human skin fibroblasts", "type": "cell-based", "details": "50% inhibition of human skin fibroblast growth", "method": "The in vitro growth inhibitory effects of certain of the chemoprotective polyamines of the invention were measured using primary, diploid fibroblasts isolated from human skin."}, "23SK skin cells": {"tested_on": "23SK skin cells", "assay": "Flow cytometry cell cycle distribution", "type": "cell-based, human", "details": "IC80 dose", "text": "FIGS. 5A-5D are cell histograms showing the results from flow cytometry analysis of chemoprotective polyamine-treated 23SK skin cells.\nIn FIG. 5, cell histograms showing the results from flow cytometry analysis of chemoprotective polyamine-treated 23SK skin cells are shown. […] The transient nature of the cell cycle block induced by chemoprotective polyamines is believed to be an important aspect of their efficacy, i.e., their ability to block cell cycle progression in stem cells during the course of chemo- or radiotherapy, and the resumption of normal stem cell division after a given cancer therapy course has been completed."}, "[3]": {"tested_on": "p21 protein in 23SK human skin cells", "assay": "p21 induction by western analysis", "type": "cell-based", "details": "23SK cells, 30 hr exposure", "method": "FIGS. 3A and 3B illustrate the level of induced p21 protein seen in diploid human fibroblasts after a 30 hr exposure to each of the indicated chemoprotective polyamines. […] In these experiments, the 23SK human skin cells were exposed for 30 hr to an “IC80” dose of each of the indicated chemoprotective polyamines and then lysed. Cell extracts were then prepared in order to measure p21 levels by western analysis (FIG. 3A).\nFIG. 3 illustrates that chemoprotective polyamines are able to induce expression of the negative cell cycle regulatory protein, p21, after exposing the human skin cells to the polyamine molecules. […] In these experiments, the 23SK human skin cells were exposed for 30 hr to an “IC80” dose of each of the indicated chemoprotective polyamines and then lysed. Cell extracts were then prepared in order to measure p21 levels by western analysis (FIG. 3A). Although the ability of modified polyamines to induce p21 is known in the literature (Kramer, D. et al., Cancer Res. 59:1278-1286, 1999), it is a novel aspect of this invention that those chemoprotective polyamines with longer aliphatic “arms” were better able to induce expression of p21 as shown in FIG. 4."}, "DNA": {"target": "DNA", "assay": "DNA binding/precipitation from solution", "details": "Expt. 1; read-out: DNA Bind/ppt. IC50 (uM), Expt. 1", "text": "The chemoprotective polyamines provided herein are also able to bind, denature and precipitate DNA from solution. As the skilled artisan will appreciate, as the concentration of polyamine is increased, there is a point where polyamine binding to helical B-DNA induces single-stranded ‘bubbles’ and conversion to other forms of DNA structure, such as Z-DNA (Feuerstein, B. et al., Nuc. Acids Res. 17:6883-6892, 1989; Basu, H. and Marton, L., Biochem. J. 244:243-246, 1987), as well as precipitating the DNA from solution."}, "[4]": {"tested_on": "radiation-induced alopecia in 11 day old rat pups", "details": "vehicle 50:25:25", "method": "In some cases, topical vasoconstrictors may be used to reduce the severity of cancer therapy side-effects. […] Because cysteamine might have been toxic if distributed systemically at high concentrations in animals, a vasoconstrictor, in this case epinephrine (epinephrine-HCl, Sigma Chemical, 20 mM in topical 0:95:5 vehicle; ethanol:PG:water) was topically co-applied with cysteamine in an effort to prevent any potential uptake of the small aminothiol by skin vasculature. […] These initial experiments were done using a rat model where whole-body radiation is used to induce alopecia. This protocol is a variation of the Cytoxan-induced alopecia protocol described in Example 2. Here, 11 day old rat pups receive four topical treatments to their backs in the two hour period (at −2 hr, −1 hr, −30 min, −10 min) just prior to receiving whole-body irradiation (3.65 min) in a Cs137 irradiator. […] The topical vehicle varies from 0:95:5 (ethanol:PG:water) to 50:30:20, depending upon the solubility and concentration of the particular aminothiol. […] Following irradiation, the animals are housed with lactating mothers for 9 days and protection from radiation-induced alopecia within the topically-treated area is scored on day 20 of life. Protection is scored as the percentage of coat density seen in unirradiated rats.\nHere, epinephrine-HCl (FW:220) was dissolved in an ethanol:propylene glycol:water delivery vehicle and was applied four times in the two hours just prior to irradiating the 11 day old rat pups. The animals were then housed with lactating mothers until day 20 of life when the degree of protection conferred by the topical epinephrine was scored."}, "[5]": {"tested_on": "radiation-induced dermatitis on backs of rats", "assay": "Radiation-induced dermatitis in rat skin model", "type": "in vivo", "details": "20 mM epinephrine; vehicle 0:95:5; cage 480; 8.7 Gy", "method": "To determine efficacy of chemoprotective polyamines in preventing radiation-induced dermatitis, adult rats were topically treated with the compounds before and after radiation treatment. Rats were exposed to medically relevant levels of radiation that could induce clinical radiation dermatitis. Sprague Dawley rats (Harlan Spraque Dawley) at 4-6 weeks-old were anesthetized with sodium pentobarbital at 40 mg/kg body weight (Sigma, St. Louis, Mo.) prior to radiation exposure. A defined area (1.5×2 cm) on the backs of rats was irradiated using a Mark I, Model 30, Cs 137 irradiator (J. L. Sheppard & Associates). Before topical drug treatment or irradiation, the backs of the rats were clipped using an Oster clipper at the closest setting. The rest of the body was protected from radiation exposure using a lead shield (2.5 cm thick). A dose response study was initially performed to reproduce relevant dermatitis that matched the Grade (I-IV) scale used to score the severity of radiation-induced dermatitis in humans. The severity of the dermatitis was scored 12-13 days post-irradiation at the peak of the dermal inflammation. […] Radiation dermatitis of Grade II-III was considered most clinically relevant, so a radiation dose of 8.7 Gy was typically used in the rats. The clipped back region on the rats was treated topically with aminothiol in delivery vehicle four times in the two hours immediately preceding irradiation (at −2 hr, −1 hr, −30 min, and −10 min; irradiation was at 0 min\nThe polyamines or amino thiols were prepared in a delivery vehicle, consisting of ethanol:propylene glycol:water, ranging from 0:95:5 to 50:30:20 depending upon the solubility characteristics of the topical molecule, and the degree of dermal penetration desired. A vehicle composed of an emulsion formed by sonication of ‘nonionic liposomes’ and isopropyl myristate was also used (Jayaraman, S. et al., J. Pharm. Sci. 85:1082-1084, 1996). In a commonly used protocol, 220 μl of topical drug/vehicle was applied to an area ˜2 cm×3 cm on the back in the 2 hr just prior to irradiation. Rats treated with only the delivery vehicle served as controls. Twelve to thirteen days post-radiation, the rats were evaluated for dermatitis within the irradiated area. In early studies, a modified scoring scale described by Masuda K. et al., Int. J. Radiation Oncol. Biol. Phys: 12, 1645 (1986) was used, and in later studies, including those described here, a simplified scoring system was used in which the percentage of the irradiated, rectangular field covered with scrab material was estimated between 0 and 100% to provide scores on a scale between 0 and 100.\nThis example relates to the use of a rat skin model to evaluate the efficacy of two amino thiol compounds in preventing radiation-induced dermatitis. To test whether topically-applied aminothiols could prevent the radiodermatitis caused by external beam radiotherapy, the rodent model described in Example 3 was slightly modified. Briefly, the radiodermatitis model involved: • i) shaving the backs of 6-7 week old rats or mice; • ii) applying four topical doses of aminothiol in a delivery vehicle composed of ethanol:propylene glycol (PG):water in the 2 hr prior to irradiation; • iii) irradiating a small, 3 cm^2 (1.5×2 cm) area on the animal's back (through a window in a lead plate) with 8.7 Gy of γ radiation from a Cs^137 source; and • iv) scoring the severity of the dermatitis 12-13 days later, at the peak of the inflammatory skin reaction. Radiodermatitis severity was scored by estimating the percentage of the irradiated field that was covered by scrab material.\nMethods: Treatments were applied as described in Example 6."}}, "note": "Like-named read-outs stand apart in the source and are kept apart here.", "data": [{"smiles": "Oc1ccc(/C=C/c2cc(O)cc(O)c2)cc1", "note": "[Resveratrol, trihydroxy-trans-stilbene, reference compound]", "values": [{"measurement": "Alopecia Score (% Normal Coat Density in Topical Treatment Area)", "setting": "[1]; Resveratrol 5 umol/day alone, ip Cytoxan 32 ug/gm b.w., Experiment 564-567", "result": 5, "unit": "%"}]}, {"smiles": "CCNCCCCNCC=C(CNCC)CNCCCCNCC", "note": "[PrC-110]", "values": [{"measurement": "IC50", "setting": "[2]; Expt. 1, read-out: IC50 (uM), Expt. 1", "result": 1680, "unit": "µM"}, {"measurement": "IC50", "setting": "[2]; Expt. 2, read-out: IC50 (uM), Expt. 2", "result": 809, "unit": "µM"}, {"measurement": "Cell Cycle Distribution At IC80 Dose (%) G1", "setting": "23SK skin cells; G1", "result": 60, "unit": "%"}, {"measurement": "Cell Cycle Distribution At IC80 Dose (%) G2/M", "setting": "23SK skin cells; G2/M", "result": 14, "unit": "%"}, {"measurement": "Cell Cycle Distribution At IC80 Dose (%) S", "setting": "23SK skin cells; S", "result": 26, "unit": "%"}, {"measurement": "p21 fold-induction at IC80 Dose", "setting": "[3]", "result": 2.91, "unit": "fold"}, {"measurement": "IC50", "setting": "DNA", "result": 270, "unit": "µM"}, {"measurement": "protection against Cytoxan-induced alopecia", "setting": "[1]; topical, alcohol:water vehicle, once per day five days before and five days after single systemic Cytoxan dose", "result": "excellent efficacy"}]}, {"smiles": "CNC[C@H](O)c1ccc(O)c(O)c1", "note": "[epinephrine]", "values": [{"measurement": "Alopecia Score (% Normal Coat Density in Topical Treatment Area)", "setting": "[4]; 20 mM epinephrine, 3.65 min γ irradiation (Cs137), Experiment 647-650", "result": 10, "unit": "%"}, {"measurement": "Alopecia Score (% Normal Coat Density in Topical Treatment Area)", "setting": "[4]; 100 mM epinephrine, 3.65 min γ irradiation", "result": "35 ± 19", "unit": "%"}, {"measurement": "Alopecia Score (% Normal Coat Density in Topical Treatment Area)", "setting": "[4]; 500 mM epinephrine, 3.65 min γ irradiation", "result": "43 ± 17", "unit": "%"}, {"measurement": "Alopecia Score (% Normal Coat Density in Topical Treatment Area)", "setting": "[4]; 1000 mM epinephrine, 3.65 min γ irradiation", "result": "94 ± 6", "unit": "%"}, {"measurement": "Dermatitis Score (% of irradiated field free of scab material)", "setting": "[5]", "result": "20 ± 8", "unit": "%"}]}]}
